System: N-linked glycosylation
Assay: D54-ERLucT cell based luciferase assay for inhibition of N-linked glycosylation
Text: The HTS approach using the bioluminescent N-linked glycosylation reporter (CCR 2011) in D54-ERLucT and D54-LucT cells has been previously described (Bennett, et al., Transl Oncol 2013, 6, 382-391). Briefly, the primary cell-based screen detects site occupancy of NLG sequons using a modified luciferase protein translated into the ER. […] The methodology for the primary (D54-ERlucT), secondary (D54-LucT), and tertiary (luciferase inhibition) screens as well and toxicity assays with CelltitreGlo are deposited in Pubchem (AID 588693).
The primary screen was developed in the D54 glioma cell line using a modified P. pyralis luciferase gene (ER-LucT) that is ER translated and glycosylated at three N-linked glycosylation consensus sequences. Glycosylation of the reporter inactivates luciferase enzymatic activity providing a robust methodology to detect inhibition of this process. D54 cells expressing a non-ER translated luciferase (LucT) insensitive to inhibition of N-linked glycoysation were used as a secondary screen for false positives. The primary screen was performed in duplicate and values were normalized to the average of positive control wells (Tunicamycin) minus averaged neutral vehicle treated wells per run. Compounds with replicate activity greater than three standard deviations above the mean average of control wells were selected for further study. A subset of 1,845 compounds met this criterion, and were advanced to simultaneous retesting in both the primary screen and a secondary (false positive) cell-based screen. […] Compounds were further triaged from consideration by consulting the Pubchem bioassay database and deprioritizing compounds showing a promiscuity rate higher than 5% across assays or by removing PAINS scaffolds (Baell, et al., J Med Chem 2010, 53, 2719-2740). Remaining compounds were assessed by medicinal chemistry review to score synthetic tractability and known issues with instability, poor solubility, or toxicity. This analysis yielded 39 compounds that were tested in a cell-free assay to detect luciferase inhibitors (Auld, et al., Proc Natl Acad Sci USA 2010, 107, 4878-4883) and by western blot analysis to detect gel mobility changes of the luciferase reporter, consistent with inhibition of N-linked glycosylation. This approach identified one aminobenzamidosulfonamide compound that blocked N-linked glycosylation.
To better understand the connection between structure and activity, analogs were prepared and tested in the D54-ERLucT cell based assay for inhibition of N-linked glycosylation (FIG. 1B). The assay was used to estimate and compare AC40 values among analogs and to guide the design of improved compounds that inhibited N-linked glycosylation. This effort generated 36 unique compounds with modifications to the amine component of the sulfonamide functionality (red), the pyrrolidine moiety (blue) or the methylaminothiazole group (green). Generally, incorporation of larger sulfonamides (i.e., larger secondary amines appended to the sulphone) was not well tolerated, resulting in erosion of potency (7 analogs). However, steric interactions could be mitigated by the introduction of a hydrogen bond accepting oxygen in a larger cyclic amine. Thus, morpholine was determined to be an acceptable surrogate for the dimethylamine component of the sulfonamide (FIGS. 1A-1D). The pyrrolidine group (blue) was replaced with various alkyl, cycloalkyl, and amine groups (7 compounds). The aminothiazole moiety was derivatized most extensively of all three regions (green highlighted area, 22 analogs). […] Analogs with the highest potency in the luciferase assay were retested with western blot analysis to insure that measurements of luciferase activation corresponded to loss of N-linked glycosylation.

[1] = D54-ERLucT cells, luciferase activation

Cc1cnc(NC(=O)c2cc(S(=O)(=O)N(C)C)ccc2N2CCCC2)s1 [NGI-1, 5-(N,N-Dimethylsulfamoyl)-N-(5-methylthiazol-2-yl)-2-(pyrrolidin-1-yl)benzamide]
NLG Inhibition ASSAY Potency Mean AC40 [1]: 0.17 µM
NLG Inhibition max act, % [1]: 321.4%
IC50 (luminescent activity, estimated, FIG. 1C, read-out: IC50 in intact D54 ER-LucT cells in culture): 1.06 µM

Source: US11219625B2, “Inhibitors of N-linked glycosylation and methods using same” (YALE UNIVERSITY, priority 2015, dated 2022)
